In PMC10683025, “Discovery of a Hydroxylamine-Based Brain-Penetrant EGFR Inhibitor for Metastatic Non-Small-Cell Lung Cancer” (Journal of Medicinal Chemistry, 2023):
Read-outs that look alike come from different tables or passages of the source.

Assays:
[1] = test system: TA1535; parameters: species or system Salmonella
[2] = test system: TA1537; parameters: species or system Salmonella;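 on Count (# of wells): Revertant-positive wells among 48 replicate wells per concentration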
Method: (§1) Compounds were assessed for mutagenicity at the Eurofins Panlabs in 384-well plates using four Salmonella strains: TA98, to probe for frameshift mutation (with quercetin as control), TA100 and TA1535, to probe for base pair insertions/deletions (with streptozotocin as control), and TA1537, to probe for frameshift mutations (with aminacridine as control) as previously described.[78] […] A concurrent bacterial cytotoxicity assay was run at 0.6, 1.2, 2.5, 5, 10, 25, 50, and 100 μM to rule out false negatives. Bacterial cytotoxicity was expressed as percent of control growth (OD650). Compounds with growth of less than 60% control were flagged and considered bacterial cytotoxic. […] Significances of the positive counts between the treatment and control were determined using a one-tailed Fisher’s exact test.

[3] = test system: TA100; parameters: species or system Salmonella;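 on Count (# of wells): Revertant-positive wells among 48 replicate wells per concentration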
Method: as §1

[4] = test system: TA98; parameters: species or system Salmonella;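 on Count (# of wells): Revertant-positive wells among 48 replicate wells per concentration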
Method: as §1

[5] = test system: P-gp and BCRP; parameters: method as in ref 17−20; details: ref 17−20; cited from earlier work
[6] = Caco-2 permeability; type: in vitro ADME; details: human; for efflux ratio at 2 h, 5 μM / Papp A→B at 2 h, 5 μM / Papp B→A at 2 h, 5 μM: Caco-2; for recovery at 2 h, 5 μM: Caco-2, Caco-2
Method: (§4) A 96-well HTS Transwell plate (Corning) was used for Caco-2 and MDCKII-MDR1 cell seeding. […] Plates were incubated at 37 °C for 2 h, and samples (50 μL) were taken at the beginning and end of the incubation in both the donor and acceptor wells with the assay run in duplicate (n = 2). Samples were analyzed by LC-MS/MS.
(§5) The efflux ratio was determined by using the following equation: [drawing 4] where Papp (B–A) indicates the apparent permeability in the basolateral to apical direction and Papp (A–B) indicates the apparent permeability in the apical to basolateral direction.

[7] = MDCKII-MDR1 permeability; type: in vitro ADME, canine; details: dog, MDCK-MDR1, MDCKII-MDR1
Method: as §4, §5

[8] = test system: MDR1; assay: MDCKII-MDR1 permeability; type: in vitro ADME, canine; details: dog, MDCK-MDR1
Method: as §4, §5

[9] = Plasma stability; type: in vitro ADME, Sprague-Dawley rat; details: rat plasma
Method: (§2) Assessment of compounds to determine stability in incubations containing plasma of human (Pharmaron) and Sprague-Dawley rat (IPHASE) was performed by Pharmaron, Inc. using the compound […] approach. Compounds were assessed in duplicate (n = 2) and incubated in plasma at 5 μM and samples (50 μL) were taken at 0, 15, 30, 60, and 120 min time points for analysis by LC-MS/MS. Peak area ratios were determined from the extracted ion chromatogram and the percent compound remaining at each time point was calculated by the following equation: [drawing 2] where peak area ratiot min is the peak area ratio of control and test compound at t min and peak area ratio0 min is the peak area ratio of control and test compound at zero time point.

[10] = Plasma stability; type: in vitro ADME, human; details: human plasma
Method: as §2

[11] = Brain tissue binding by equilibrium dialysis; type: in vitro ADME, mouse; details: CD-1, mouse
Method: (§3) Plasma protein binding and brain tissue binding were determined by Pharmaron, Inc. using the equilibrium dialysis method. […] Following incubation, the samples were analyzed by LC-MS/MS and the concentrations of the compounds were determined in the buffer and plasma solution chambers.

[12] = Brain tissue binding by equilibrium dialysis; type: in vitro ADME; details: rat
Method: as §3

## CN(N=O)C(=O)N[C@H]1C(O)O[C@H](CO)[C@@H](O)[C@@H]1O (mixture of isomers) [Streptozotocin, reference compound]
[1]; TA1535+S9, 2.5E-06 M
  Count (# of wells): 48
[1]; TA1535-S9, 2.5E-06 M
  Count (# of wells): 2
  Positive Significance (- to +++): -
[2]; TA1537+S9, 2.5E-06 M
  Count (# of wells): 7
  Positive Significance (- to +++): -
[2]; TA1537-S9, 2.5E-06 M
  Count (# of wells): 2
  Positive Significance (- to +++): -
[3]; TA100+S9, 2.5E-06 M
  Count (# of wells): 39
[3]; TA100-S9, 2.5E-06 M
  Count (# of wells): 42
[4]; TA98+S9, 2.5E-06 M
  Count (# of wells): 2
  Positive Significance (- to +++): -
[4]; TA98-S9, 2.5E-06 M
  Count (# of wells): 1
  Positive Significance (- to +++): -

## Nc1ccc2cc3ccccc3cc2c1 [2-Aminoanthracene, reference compound]
[1]; TA1535+S9, 5.0E-06 M
  Count (# of wells): 15
[2]; TA1537+S9, 1.0E-05 M
  Count (# of wells): 14
  Positive Significance (- to +++): ++ (strong positive, if P < 0.01 (denoted as “++”))
[2]; TA1537-S9, 5.0E-06 M
  Count (# of wells): 1
  Positive Significance (- to +++): -
[3]; TA100+S9, 1.0E-06 M
  Count (# of wells): 21
[3]; TA100-S9, 5.0E-06 M
  Count (# of wells): 4
  Positive Significance (- to +++): -
[4]; TA98+S9, 2.0E-06 M
  Count (# of wells): 47
[4]; TA98-S9, 5.0E-06 M
  Count (# of wells): 1
  Positive Significance (- to +++): -

## Nc1c2ccccc2nc2ccccc12 [9-Aminoacridine, reference compound]
[1]; TA1535+S9, 1.0E-05 M
  Count (# of wells): 0
  Positive Significance (- to +++): -
[1]; TA1535-S9, 1.0E-05 M
  Count (# of wells): 1
  Positive Significance (- to +++): -
[2]; TA1537+S9, 1.0E-05 M
  Count (# of wells): 17
[2]; TA1537-S9, 1.0E-05 M
  Count (# of wells): 11
  Positive Significance (- to +++): ++ (strong positive, if P < 0.01 (denoted as “++”))
[3]; TA100+S9, 1.0E-05 M
  Count (# of wells): 3
  Positive Significance (- to +++): -
[3]; TA100-S9, 1.0E-05 M
  Count (# of wells): 2
  Positive Significance (- to +++): -
[4]; TA98+S9, 1.0E-05 M
  Count (# of wells): 1
  Positive Significance (- to +++): -
[4]; TA98-S9, 1.0E-05 M
  Count (# of wells): 0
  Positive Significance (- to +++): -

## CN(C)C/C=C/C(=O)Nc1cc2c(Nc3ccc(F)c(Cl)c3)ncnc2cc1O[C@H]1CCOC1 [Afatinib]
[5]
  efflux status against common efflux transporters: P-gp and BCRP Substrate

## COc1cc2ncnc(Nc3ccc(F)c(Cl)c3)c2cc1NC(=O)/C=C/CN1CCCCC1 [Dacomitinib]
[5]
  efflux status against common efflux transporters: P-gp and BCRP Substrate

## C[C@H]1O[C@@H](O[C@H]2[C@@H](O)C[C@H](O[C@H]3[C@@H](O)C[C@H](O[C@H]4CC[C@@]5(C)[C@H](CC[C@@H]6[C@@H]5C[C@@H](O)[C@]5(C)[C@@H](C7=CC(=O)OC7)CC[C@]65O)C4)O[C@@H]3C)O[C@@H]2C)C[C@H](O)[C@@H]1O [Digoxin, reference compound]
[6]
  efflux ratio at 2 h, 5 μM: 50.1
  Papp A→B at 2 h, 5 μM: 0.27 ×10⁻⁶ cm/s
  Papp B→A at 2 h, 5 μM: 13.4 ×10⁻⁶ cm/s
[6]; read-out: Recovery% (AP-BL)
  recovery at 2 h, 5 μM: 108%
[6]; read-out: Recovery% (BL-AP)
  recovery at 2 h, 5 μM: 96.2%
[7]; read-out: Recovery% (AP-BL)
  recovery at 2 h, 1 μM: 98.8%
[7]; read-out: Recovery% (BL-AP)
  recovery at 2 h, 1 μM: 100%
[8]
  efflux ratio at 2 h, 1 μM: 40.6
  Papp A→B at 2 h, 1 μM: 0.25 ×10⁻⁶ cm/s
  Papp B→A at 2 h, 1 μM: 10.2 ×10⁻⁶ cm/s

## C#Cc1cccc(Nc2ncnc3cc(OCCOC)c(OCCOC)cc23)c1 [Erlotinib]
[5]
  efflux status against common efflux transporters: P-gp and BCRP Substrate

## COCCc1ccc(OCC(O)CNC(C)C)cc1 (centres unmarked) [Metoprolol, reference compound]
[6]
  efflux ratio at 2 h, 5 μM: 0.89
  Papp A→B at 2 h, 5 μM: 24.9 ×10⁻⁶ cm/s
  Papp B→A at 2 h, 5 μM: 22.2 ×10⁻⁶ cm/s
[6]; read-out: Recovery% (AP-BL)
  recovery at 2 h, 5 μM: 97.4%
[6]; read-out: Recovery% (BL-AP)
  recovery at 2 h, 5 μM: 98.4%
[7]; read-out: Recovery% (AP-BL)
  recovery at 2 h, 1 μM: 105%
[7]; read-out: Recovery% (BL-AP)
  recovery at 2 h, 1 μM: 98.4%
[8]
  efflux ratio at 2 h, 1 μM: 0.81
  Papp A→B at 2 h, 1 μM: 25.9 ×10⁻⁶ cm/s
  Papp B→A at 2 h, 1 μM: 20.9 ×10⁻⁶ cm/s

## CC[C@H](C)C(=O)O[C@H]1C[C@@H](C)C=C2C=C[C@H](C)[C@H](CC[C@@H]3C[C@@H](O)CC(=O)O3)[C@H]21 [Mevinolin, reference compound]
[9]; Sprague-Dawley, ∞ = no degradation
  half-life at 5 μM: 2.49 min
[9]; 15 min
  Remaining Percentages: 1.54%
[9]; 30 min
  Remaining Percentages: 0.42%
[9]; 60 min
  Remaining Percentages: 0.30%
[9]; 120 min
  Remaining Percentages: 0.27%

## C=CC(=O)Nc1cc(Nc2nccc(-c3cn(C)c4ccccc34)n2)c(OC)cc1N(C)CCN(C)C [Osimertinib]
[5]
  efflux status against common efflux transporters: Moderate P-gp and BCRP Substrate

## CC(C)[N+](C)(CCOC(=O)C1c2ccccc2Oc2ccccc21)C(C)C [Propantheline, reference compound]
[10]; 15 min
  Remaining Percentages: 69.10%
[10]; 30 min
  Remaining Percentages: 48.79%
[10]; 60 min
  Remaining Percentages: 22.07%
[10]; 120 min
  Remaining Percentages: 4.85%
[10]; ∞ = no degradation
  half-life at 5 μM: 27.6 min

## O=c1c(O)c(-c2ccc(O)c(O)c2)oc2cc(O)cc(O)c12 [Quercetin, reference compound]
[1]; TA1535+S9, 1.0E-05 M
  Count (# of wells): 4
  Positive Significance (- to +++): -
[2]; TA1537+S9, 3.0E-05 M
  Count (# of wells): 6
  Positive Significance (- to +++): -
[2]; TA1537-S9, 1.0E-05 M
  Count (# of wells): 1
  Positive Significance (- to +++): -
[3]; TA100+S9, 1.0E-05 M
  Count (# of wells): 5
  Positive Significance (- to +++): -
[3]; TA100-S9, 1.0E-05 M
  Count (# of wells): 1
[4]; TA98+S9, 1.0E-05 M
  Count (# of wells): 30
[4]; TA98-S9, 1.0E-05 M
  Count (# of wells): 12

## CCCc1nc2c(C)cc(-c3nc4ccccc4n3C)cc2n1Cc1ccc(-c2ccccc2C(=O)O)cc1 [Telmisartan, reference compound]
[11]; brain homogenate, read-out: fu,brain% / %Unboundbrain
  fraction unbound at 6 h, 5 μM: 0.0143
[11]; mouse brain homogenate
  recovery at 6 h, 5 μM: 109%
  remaining at 6 h, 5 μM: 108%
[11]; mouse brain homogenate, read-out: %Unboundbrain (converted)
  fraction unbound at 6 h, 5 μM: 0.0143
[12]; Sprague-Dawley (SD), rat brain homogenate
  recovery at 6 h, 5 μM: 107%
[12]; Sprague-Dawley, brain homogenate, read-out: fu,brain% / %Unboundbrain
  fraction unbound at 6 h, 5 μM: 0.0146
[12]; Sprague-Dawley, rat brain homogenate
  remaining at 6 h, 5 μM: 100%
[12]; Sprague-Dawley, rat brain homogenate, read-out: %Boundbrain (converted)
  fraction unbound at 6 h, 5 μM: 0.0146
